# Assay results taken from US7608629B2, “(Piperidinyloxy)phenyl, (piperidinyloxy)pyridinyl, (piperidinylsulfanyl)phenyl and (piperidinylsulfanyl)pyridinyl compounds as 5-HT1F agonists” (Eli Lilly and Company, priority 2003, dated 2009).
# Structures can show the parent of a compound that is named as a salt.
# Test system: not given
# Test: not given
# Conditions: not given
row,Compound,melting point
1,CC1CN(C)CCC1Oc1cccc(NC(=O)c2ccc(F)cc2Cl)n1.Cl (stereo not drawn),155 to 160 °C
2,CN1CCC(Oc2cccc(NC(=O)c3c(F)cccc3Cl)n2)CC1.Cl,139.6 °C
3,CN1CCC(Oc2cccc(NC(=O)c3ccccc3OC(F)(F)F)n2)CC1.Cl,88.7 °C
4,CN1CCC(Oc2cccc(NC(=O)c3ccccc3Br)n2)CC1.Cl,104.3 °C
5,CN1CCC(Oc2cccc(NC(=O)c3c(F)cccc3F)n2)CC1.Cl,261.4 °C
6,CN1CCC(Oc2cccc(NC(=O)c3ccc(F)c(F)c3F)n2)CC1.Cl,182.4 °C (dec.)
7,CN1CCC(Oc2cccc(NC(=O)c3cc(F)c(F)c(F)c3)n2)CC1.Cl,171.4 °C (dec.)
8,CN1CCC(Oc2cccc(NC(=O)c3c(F)cc(F)cc3F)n2)CC1.Cl,264 to 266 °C
9,CN1CCC(Oc2cccc(NC(=O)c3cccnc3)c2)CC1.Cl,73 to 74 °C
10,CN1CCC(Oc2cccc(NC(=O)C3CCCCC3)c2)CC1.Cl,141 to 142 °C
11,CC(C)C(=O)Nc1cccc(OC2CCN(C)CC2)c1.Cl,104 to 105 °C
12,CN1CCC(Oc2cc(NC(=O)c3ccccc3OC(F)(F)F)ccc2Cl)CC1.Cl,95 to 97 °C
13,CN1CCC(Oc2cc(NC(=O)c3ccccc3Br)ccc2Cl)CC1.Cl,146 to 148 °C
14,CN1CCC(Oc2cc(NC(=O)c3c(F)cccc3F)ccc2Cl)CC1.Cl,261 °C (dec.)
15,CN1CCC(Oc2cc(NC(=O)c3c(F)cccc3Cl)ccc2Cl)CC1.Cl,259 to 260 °C
16,CN1CCC(Oc2cc(NC(=O)c3c(F)cc(F)cc3F)ccc2Cl)CC1.Cl,> 270 °C
17,CN1CCC(Oc2cccc(NC(=O)c3ccc(F)cc3)n2)CC1(C)C (stereo not drawn) (as salt: salt),145 °C
18,CN1CCC(Oc2cccc(NC(=O)c3ccc(F)cc3)n2)CC1.Cl (hydrate or solvate),203 to 205 °C
19,CN1CCC(Oc2cccc(NC(=O)c3ccc(F)cc3F)n2)CC1.Cl (hydrate or solvate),269 to 271 °C
20,CN1CCC(Oc2cccc(NC(=O)c3ccncc3)n2)CC1.Cl (hydrate or solvate),254 to 256 °C
21,CN1CCC(Oc2cccc(NC(=O)c3ccccc3Cl)n2)CC1.Cl (hydrate or solvate),88 to 90 °C
22,Cl.O=C(Nc1cccc(OC2CCNCC2)n1)c1ccc(F)cc1 (hydrate or solvate),251 to 253 °C
23,"C[C@H]1C[C@H](Oc2cc(NC(=O)c3ccc(F)cc3Cl)ccc2C(C)(C)C)CCN1C.Cl (single isomer, unassigned)",260 °C
24,"C[C@H]1CN(C)CC[C@H]1Oc1cccc(NC(=O)C2=CC=C(F)CC2Cl)n1 (single isomer, unassigned) (as salt: salt)",238 °C
25,"C[C@@H]1CN(C)CC[C@@H]1Oc1cccc(NC(=O)C2=CC=C(F)CC2Cl)n1 (single isomer, unassigned) (as salt: salt)",238 °C

# More lines, now with the values ahead:
row,melting point,Compound
1,153 to 154 °C,CN1CCC(Oc2cccc(NC(=O)c3c(F)cccc3Cl)c2)CC1.Cl
2,213 °C,CN1CCC(Oc2cccc(NC(=O)c3ccc(F)cc3Cl)c2)CC1.Cl
3,91 °C,CCN1CCC(Oc2cccc(NC(=O)c3ccc(F)cc3Cl)c2)CC1.Cl
4,262 °C (dec.),CCN1CCC(Oc2cccc(NC(=O)c3c(F)cccc3Cl)c2)CC1.Cl
5,136 °C (dec.),CN1CCC(Oc2cccc(NC(=O)c3c(F)cc(F)cc3F)c2)CC1.Cl
6,119 to 121 °C,CN1CCC(Oc2cccc(NC(=O)c3ccccc3OC(F)(F)F)c2)CC1.Cl
7,135 to 136 °C,CN1CCC(Oc2cccc(NC(=O)c3ccccc3C(F)(F)F)c2)CC1.Cl
8,172 to 175 °C,CN1CCC(Oc2cccc(NC(=O)c3ccncc3)c2)CC1.Cl
9,259 °C (dec.),CN1CCC(Oc2cc(NC(=O)c3ccccc3Cl)ccc2Cl)CC1.Cl
10,257 °C (dec.),CN1CCC(Oc2cc(NC(=O)c3ccc(F)cc3F)ccc2Cl)CC1.Cl
11,269 °C (dec.),CN1CCC(Oc2cccc(NC(=O)c3ccccc3Br)c2)CC1.Cl
12,150 °C,CN1CCC(Oc2cc(F)cc(NC(=O)c3ccc(F)cc3)c2)CC1.Cl
13,136 to 138 °C,CN1CCC(Oc2cccc(NC(=O)c3c(F)cccc3F)c2)CC1.Cl
14,170 to 171 °C,CN1CCC(Oc2cccc(NC(=O)c3c(Cl)cccc3Cl)c2)CC1.Cl
15,131 to 133 °C,CN1CCC(Oc2cccc(NC(=O)c3ccc(Cl)cc3Cl)c2)CC1.Cl
16,135 to 137 °C,CN1CCC(Oc2cccc(NC(=O)c3ccc(F)cc3Cl)n2)CC1.Cl (hydrate or solvate)
17,152 °C,"C[C@H]1C[C@@H](Oc2cccc(NC(=O)c3ccc(F)cc3Cl)c2)CCN1C.Cl (single isomer, unassigned)"
18,145 °C,"C[C@H]1C[C@H](Oc2cccc(NC(=O)c3ccc(F)cc3Cl)c2)CCN1C.Cl (single isomer, unassigned)"

# Test system: rabbit saphenous vein
# Test: Rabbit saphenous vein contraction
# Conditions: not given
# Procedure: Representative compounds of the present invention were tested in a rabbit saphenous vein contraction assay to measure their ability to mediate vasoconstriction. […] The tips of two 30-gauge stainless steel hypodermic needles bent into an L-shape were slipped into the polyethylene tubing. Vessels were gently pushed from the cannula onto the needles. The needles were then separated so that the lower one was attached with thread to a stationary glass rod and the upper one was tied with thread to the transducer. […] An initial optimum resting force of 1 gm was applied to the saphenous vein. Isometric contractions were recorded as changes in grams of force on a Beckman Dynograph with Statham UC-3 transducers and microscale accessory attachments. Tissues were allowed to equilibrate 1 to 2 hours before exposure to drugs. Cumulative agonist concentration-response curves were generated in tissues and no tissue was used to generate more than two agonist concentration-response curves. […] This vasoconstriction assay measures two important parameters, saphenous vein contraction (EC50) and maximal contraction as a % maximal KCl response (% man KCl).
row,corrected vasoconstriction EC50 (EC50 divided by %max KCl),Compound
1,10.3 nM,CNS(=O)(=O)Cc1ccc2[nH]cc(CCN(C)C)c2c1 [sumatriptan]

# Same assay, conditions: Oryctolagus cuniculus
row,EC50,Compound
1,660 nM,CNS(=O)(=O)Cc1ccc2[nH]cc(CCN(C)C)c2c1 [sumatriptan]
